PubChem BioAssay (NCI)
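Five concentrations, 48 hours, 96-well plates. Here, GI50 denotes the concentration required for 50% inhibition of growth. TGI marks complete inhibition of growth.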

How the values were obtained:
Assay in all cases: DTP human tumour cell line panel, 48 h
786-0 renal = system: 786-0 renal
A498 renal = system: A498 renal
A549 NSCLC = system: A549 NSCLC
ACHN renal = system: ACHN renal
CAKI-1 renal = system: CAKI-1 renal
CCRF-CEM leukemia = system: CCRF-CEM leukemia
COLO 205 colon = system: COLO 205 colon
DLD-1 colon = system: DLD-1 colon
HCC-2998 colon = system: HCC-2998 colon
HCT-116 colon = system: HCT-116 colon
HCT-15 colon = system: HCT-15 colon
HL-60(TB) leukemia = system: HL-60(TB) leukemia
HOP-18 NSCLC = system: HOP-18 NSCLC
HOP-62 NSCLC = system: HOP-62 NSCLC
HOP-92 NSCLC = system: HOP-92 NSCLC
HT29 colon = system: HT29 colon
IGROV1 ovarian = system: IGROV1 ovarian
K-562 leukemia = system: K-562 leukemia
KM12 colon = system: KM12 colon
KM20L2 colon = system: KM20L2 colon
LOX IMVI melanoma = system: LOX IMVI melanoma
LXFL 529 NSCLC = system: LXFL 529 NSCLC
M14 melanoma = system: M14 melanoma
M19-MEL melanoma = system: M19-MEL melanoma
MALME-3M melanoma = system: MALME-3M melanoma
MOLT-4 leukemia = system: MOLT-4 leukemia
NCI-H226 lung = system: NCI-H226 lung
NCI-H460 lung = system: NCI-H460 lung
NCI-H522 lung = system: NCI-H522 lung
OVCAR-3 ovarian = system: OVCAR-3 ovarian
OVCAR-4 ovarian = system: OVCAR-4 ovarian
OVCAR-5 ovarian = system: OVCAR-5 ovarian
OVCAR-8 ovarian = system: OVCAR-8 ovarian
RPMI-8226 leukemia = system: RPMI-8226 leukemia
RXF 393 renal = system: RXF 393 renal
SF-268 CNS = system: SF-268 CNS
SF-295 CNS = system: SF-295 CNS
SF-539 CNS = system: SF-539 CNS
SK-MEL-2 melanoma = system: SK-MEL-2 melanoma
SK-MEL-28 melanoma = system: SK-MEL-28 melanoma
SK-MEL-5 melanoma = system: SK-MEL-5 melanoma
SK-OV-3 ovarian = system: SK-OV-3 ovarian
SN12C renal = system: SN12C renal
SNB-19 CNS = system: SNB-19 CNS
SNB-75 CNS = system: SNB-75 CNS
SW-620 colon = system: SW-620 colon
TK-10 renal = system: TK-10 renal
U251 CNS = system: U251 CNS
UACC-257 melanoma = system: UACC-257 melanoma
UACC-62 melanoma = system: UACC-62 melanoma
UO-31 renal = system: UO-31 renal
DMS 114 small cell lung = system: DMS 114 small cell lung
DMS 273 small cell lung = system: DMS 273 small cell lung
NCI-H23 lung = system: NCI-H23 lung
SNB-78 CNS = system: SNB-78 CNS
SR leukemia = system: SR leukemia
XF 498 CNS = system: XF 498 CNS

CC(=O)[CH-]C(=O)c1ccccc1.CC(=O)[CH-]C(=O)c1ccccc1.COc1cccc([O-])c1[O-].[Ti+4]
GI50 (786-0 renal): 49 µM
TGI (786-0 renal): > 100 µM
GI50 (A498 renal): 72.5 µM
TGI (A498 renal): > 100 µM
GI50 (A549 NSCLC): > 100 µM
TGI (A549 NSCLC): > 100 µM
GI50 (ACHN renal): 94.9 µM
TGI (ACHN renal): > 100 µM
GI50 (CAKI-1 renal): > 100 µM
TGI (CAKI-1 renal): > 100 µM
GI50 (CCRF-CEM leukemia): 6.42 µM
TGI (CCRF-CEM leukemia): > 100 µM
GI50 (COLO 205 colon): 37.9 µM
TGI (COLO 205 colon): > 100 µM
GI50 (DLD-1 colon): 69.2 µM
TGI (DLD-1 colon): > 100 µM
GI50 (HCC-2998 colon): 90.2 µM
TGI (HCC-2998 colon): > 100 µM
GI50 (HCT-116 colon): 32.1 µM
TGI (HCT-116 colon): > 100 µM
GI50 (HCT-15 colon): 50.2 µM
TGI (HCT-15 colon): > 100 µM
GI50 (HL-60(TB) leukemia): 20.3 µM
TGI (HL-60(TB) leukemia): 98.2 µM
GI50 (HOP-18 NSCLC): 25.9 µM
TGI (HOP-18 NSCLC): 63.5 µM
GI50 (HOP-62 NSCLC): 71.4 µM
TGI (HOP-62 NSCLC): > 100 µM
GI50 (HOP-92 NSCLC): 57.8 µM
TGI (HOP-92 NSCLC): > 100 µM
GI50 (HT29 colon): 64.5 µM
TGI (HT29 colon): > 100 µM
GI50 (IGROV1 ovarian): > 100 µM
TGI (IGROV1 ovarian): > 100 µM
GI50 (K-562 leukemia): 31.6 µM
TGI (K-562 leukemia): > 100 µM
GI50 (KM12 colon): 33.4 µM
TGI (KM12 colon): > 100 µM
GI50 (KM20L2 colon): 52.2 µM
TGI (KM20L2 colon): > 100 µM
GI50 (LOX IMVI melanoma): 25 µM
TGI (LOX IMVI melanoma): > 100 µM
GI50 (LXFL 529 NSCLC): 34.3 µM
TGI (LXFL 529 NSCLC): > 100 µM
GI50 (M14 melanoma): 64.9 µM
TGI (M14 melanoma): > 100 µM
GI50 (M19-MEL melanoma): 32.4 µM
TGI (M19-MEL melanoma): 89.7 µM
GI50 (MALME-3M melanoma): 33.4 µM
TGI (MALME-3M melanoma): > 100 µM
GI50 (MOLT-4 leukemia): 33.1 µM
TGI (MOLT-4 leukemia): > 100 µM
GI50 (NCI-H226 lung): 15.9 µM
TGI (NCI-H226 lung): 73 µM
GI50 (NCI-H460 lung): 52 µM
TGI (NCI-H460 lung): > 100 µM
GI50 (NCI-H522 lung): 17.2 µM
TGI (NCI-H522 lung): 31.7 µM
GI50 (OVCAR-3 ovarian): 40.5 µM
TGI (OVCAR-3 ovarian): > 100 µM
GI50 (OVCAR-4 ovarian): 54.3 µM
TGI (OVCAR-4 ovarian): > 100 µM
GI50 (OVCAR-5 ovarian): > 100 µM
TGI (OVCAR-5 ovarian): > 100 µM
GI50 (OVCAR-8 ovarian): 42.4 µM
TGI (OVCAR-8 ovarian): > 100 µM
GI50 (RPMI-8226 leukemia): 57.1 µM
TGI (RPMI-8226 leukemia): > 100 µM
GI50 (RXF 393 renal): 30 µM
TGI (RXF 393 renal): > 100 µM
GI50 (SF-268 CNS): 47.6 µM
TGI (SF-268 CNS): > 100 µM
GI50 (SF-295 CNS): 70.4 µM
TGI (SF-295 CNS): > 100 µM
GI50 (SF-539 CNS): 24.4 µM
TGI (SF-539 CNS): 65.6 µM
GI50 (SK-MEL-2 melanoma): 24.8 µM
TGI (SK-MEL-2 melanoma): 62.4 µM
GI50 (SK-MEL-28 melanoma): 31 µM
TGI (SK-MEL-28 melanoma): > 100 µM
GI50 (SK-MEL-5 melanoma): 93.3 µM
TGI (SK-MEL-5 melanoma): > 100 µM
GI50 (SK-OV-3 ovarian): 53.9 µM
TGI (SK-OV-3 ovarian): > 100 µM
GI50 (SN12C renal): 49.1 µM
TGI (SN12C renal): > 100 µM
GI50 (SNB-19 CNS): 64.3 µM
TGI (SNB-19 CNS): > 100 µM
GI50 (SNB-75 CNS): 43.5 µM
TGI (SNB-75 CNS): > 100 µM
GI50 (SW-620 colon): 52.6 µM
TGI (SW-620 colon): > 100 µM
GI50 (TK-10 renal): > 100 µM
TGI (TK-10 renal): > 100 µM
GI50 (U251 CNS): 25.7 µM
TGI (U251 CNS): > 100 µM
GI50 (UACC-257 melanoma): > 100 µM
TGI (UACC-257 melanoma): > 100 µM
GI50 (UACC-62 melanoma): 39.9 µM
TGI (UACC-62 melanoma): > 100 µM
GI50 (UO-31 renal): > 100 µM
TGI (UO-31 renal): > 100 µM

CN(C)c1ccc2c(c1)CN1C(=O)c3ccccc3C1=N2
GI50 (786-0 renal): > 100 µM
TGI (786-0 renal): > 100 µM
GI50 (A549 NSCLC): > 100 µM
TGI (A549 NSCLC): > 100 µM
GI50 (ACHN renal): > 100 µM
TGI (ACHN renal): > 100 µM
GI50 (COLO 205 colon): > 100 µM
TGI (COLO 205 colon): > 100 µM
GI50 (DLD-1 colon): > 100 µM
TGI (DLD-1 colon): > 100 µM
GI50 (DMS 114 small cell lung): > 100 µM
TGI (DMS 114 small cell lung): > 100 µM
GI50 (DMS 273 small cell lung): > 100 µM
TGI (DMS 273 small cell lung): > 100 µM
GI50 (HCT-116 colon): > 100 µM
TGI (HCT-116 colon): > 100 µM
GI50 (HCT-15 colon): > 100 µM
TGI (HCT-15 colon): > 100 µM
GI50 (HL-60(TB) leukemia): > 100 µM
TGI (HL-60(TB) leukemia): > 100 µM
GI50 (HOP-18 NSCLC): 6.02 µM
TGI (HOP-18 NSCLC): > 100 µM
GI50 (HOP-92 NSCLC): > 100 µM
TGI (HOP-92 NSCLC): > 100 µM
GI50 (HT29 colon): > 100 µM
TGI (HT29 colon): > 100 µM
GI50 (IGROV1 ovarian): > 100 µM
TGI (IGROV1 ovarian): > 100 µM
GI50 (KM12 colon): > 100 µM
TGI (KM12 colon): > 100 µM
GI50 (LOX IMVI melanoma): > 100 µM
TGI (LOX IMVI melanoma): > 100 µM
GI50 (LXFL 529 NSCLC): > 100 µM
TGI (LXFL 529 NSCLC): > 100 µM
GI50 (M14 melanoma): > 100 µM
TGI (M14 melanoma): > 100 µM
GI50 (MALME-3M melanoma): > 100 µM
TGI (MALME-3M melanoma): > 100 µM
GI50 (MOLT-4 leukemia): > 100 µM
TGI (MOLT-4 leukemia): > 100 µM
GI50 (NCI-H226 lung): > 100 µM
TGI (NCI-H226 lung): > 100 µM
GI50 (NCI-H23 lung): > 100 µM
TGI (NCI-H23 lung): > 100 µM
GI50 (NCI-H460 lung): > 100 µM
TGI (NCI-H460 lung): > 100 µM
GI50 (NCI-H522 lung): 36.6 µM
TGI (NCI-H522 lung): > 100 µM
GI50 (OVCAR-3 ovarian): > 100 µM
TGI (OVCAR-3 ovarian): > 100 µM
GI50 (OVCAR-4 ovarian): > 100 µM
TGI (OVCAR-4 ovarian): > 100 µM
GI50 (OVCAR-5 ovarian): > 100 µM
TGI (OVCAR-5 ovarian): > 100 µM
GI50 (OVCAR-8 ovarian): > 100 µM
TGI (OVCAR-8 ovarian): > 100 µM
GI50 (RPMI-8226 leukemia): > 100 µM
TGI (RPMI-8226 leukemia): > 100 µM
GI50 (RXF 393 renal): > 100 µM
TGI (RXF 393 renal): > 100 µM
GI50 (SF-295 CNS): > 100 µM
TGI (SF-295 CNS): > 100 µM
GI50 (SF-539 CNS): > 100 µM
TGI (SF-539 CNS): > 100 µM
GI50 (SK-MEL-2 melanoma): > 100 µM
TGI (SK-MEL-2 melanoma): > 100 µM
GI50 (SK-MEL-28 melanoma): > 100 µM
TGI (SK-MEL-28 melanoma): > 100 µM
GI50 (SK-MEL-5 melanoma): > 100 µM
TGI (SK-MEL-5 melanoma): > 100 µM
GI50 (SK-OV-3 ovarian): > 100 µM
TGI (SK-OV-3 ovarian): > 100 µM
GI50 (SN12C renal): > 100 µM
TGI (SN12C renal): > 100 µM
GI50 (SNB-19 CNS): > 100 µM
TGI (SNB-19 CNS): > 100 µM
GI50 (SNB-75 CNS): > 100 µM
TGI (SNB-75 CNS): > 100 µM
GI50 (SNB-78 CNS): > 100 µM
TGI (SNB-78 CNS): > 100 µM
GI50 (SR leukemia): > 100 µM
TGI (SR leukemia): > 100 µM
GI50 (SW-620 colon): > 100 µM
TGI (SW-620 colon): > 100 µM
GI50 (TK-10 renal): > 100 µM
TGI (TK-10 renal): > 100 µM
GI50 (U251 CNS): > 100 µM
TGI (U251 CNS): > 100 µM
GI50 (UACC-257 melanoma): > 100 µM
TGI (UACC-257 melanoma): > 100 µM
GI50 (UACC-62 melanoma): > 100 µM
TGI (UACC-62 melanoma): > 100 µM
GI50 (UO-31 renal): > 100 µM
TGI (UO-31 renal): > 100 µM
GI50 (XF 498 CNS): > 100 µM
TGI (XF 498 CNS): > 100 µM
